Values joined by “and” are separate entries in the source; they are usually repeats but may differ in a detail not shown here. Equal values may be shown once. “Also recorded” adds a separate entry of the source.
What was measured:
GPCR22 [1] = molecular target: T1, GPCR22 (Homo sapiens, UniProt Q99680, C425R); experiment: Erk 1/2 and Akt phosphorylation by guanosine in 1321N1 human astrocytoma cells transfected with GPCR22 DNA (Western Blot); type: cell-based; settings: guanosine 300 μM, compared to non-GPCR22-transfected 1321N1 cells
T1 construct: A full length cDNA clone of human GPCR22 was provided by Origene Technologies; host or cells: 1321N1 human astrocytoma cells, pCMV vector, transient
Method: A full length cDNA clone of human GPCR22 was provided by Origene Technologies. Transient expression in the 1321N1 cell line was performed using a pCMV expression vector. cDNA fragments present in an expression vector (pCMV) is located downstream of a transcriptional promoter capable of driving heterologous gene expression in a variety of mammalian cells. 1321N1 cell lines were transiently transfected with hGPCR22 cloned into pCMV expression vectors (Invitrogen). DNA transfection was performed by lipofection using Lipofectamine (Life Technologies). Twenty-four hours after transfection, the cells were lysed and assayed. RT-PCR analysis using GPCR22 forward: CTCATCTGCTGTTTCCACGA (SEQ. ID NO: 5) and GPCR22 reverse CGGATGTTAAGAGCCTGGAG (SEQ. ID NO: 6), was used to confirm the transfection of GPCR22 (G1) (labelled “1321N1 G1-pCMV Trans”) into 1321N1 cells as shown in FIG. 6a and evidenced by the band at 411 bp. Furthermore, the expression of GPCR22 (labelled “1321N1 G1-pCMV Trans”) in 1321N1 cells as compared to non-G1 transfected cells (labelled “1321N1”) was confirmed by Western Blot analysis using a rabbit polyclonal anti-GPCR22 antibody (NovateinBio, SH-A12465, MA, USA), as shown in FIG. 6b.

GPCR22 (G1) receptor = molecular target: T2, GPCR22 (G1) receptor (Homo sapiens, UniProt Q99680, C425R); experiment: Intracellular cAMP in 1321N1 cell line transfected with GPCR22 (G1) receptor; type: cell-based; settings: increasing concentrations of guanosine, absence and presence of PTX (200 ng/ml, 16 h); FIG. 7e
T2 construct: A full length cDNA clone of human GPCR22 was provided by Origene Technologies; expressed in transfected cells; host or cells: 1321N1 human astrocytoma cells

[2] = tested on: GPCR22-transfected S2 cells; experiment: Actinomycin D-induced apoptosis, Caspase-3 flow cytometry, GPCR22-transfected S2 cells; type: cell-based, Drosophila; settings: 100 μM guanosine before 1 μM actinomycin D; FIGS. 11a-d
Method: (§1) In order to determine whether guanosine produced any anti-apoptotic effects through a GPCR22-mediated mechanism, the effect of guanosine on apoptosis in GPCR22-transfected S2 cells was measured using flow cytometry techniques. Briefly, S2 cells were maintained in Schneider's Drosophila medium (GIBCO) supplemented with 10% heat-inactivated fetal calf serum, penicillin and streptomycin. For induction of apoptosis both receptor-transfected and non-transfected S2 cells were incubated in 1 μM actinomycin D (Sigma) for 6 hours at 25° C. Prior to the induction of apoptosis, to the S2 culture medium were either added 100 μM guanosine or the same amount of vehicle. After a 48 hr incubation with guanosine or vehicle, the cells were fixed with 4% PFA for fluorescent-immunostaining. The primary antibody Caspase-3 (10 μg/ml; R&D systems AF835) was incubated at room temperature for 1.5 hr and the secondary antibody (donkey anti rabbit Alexa488 (1:1800) was incubated at room temperature for 1 hr. After rinsing with PBS cells were re-suspend with “PBS+0.5% BSA” solution for flow cytometry reading using a 8 colour, […] (488 nm, 633 nm, 405 nm) FACS (Canto) machine.

non-transfected S2 cells [3] = experiment: Actinomycin D-induced apoptosis, Caspase-3 flow cytometry, non-transfected S2 cells; type: cell-based, Drosophila; settings: 100 μM guanosine before 1 μM actinomycin D
Method: as §1

non-transfected S2 cells [4] = experiment: Fluo-4 AM imaging of intracellular Ca2+ in non-transfected S2 cells; type: cell-based, Drosophila; settings: guanosine versus vehicle, FIGS. 12a, 12d
Method: Fluo-4 AM calcium imaging was used to visualize intracellular calcium concentration in the GPRC22-transfected and non-transfected S2 cells. A 2.5 mM stock solution of Fluo-4 Am dye (molecular Probes, Burlington, ON) was prepared in DMSO and 20% Pluronic F-127 and used to within a week. The S2 cell preparations were incubated with a final concentration of 5 μM fluo-4AM and 0.02% Pluronic F-127 in 1 ml S2 culture medium for 20 min at room temperature, then washed to allow for full de-esterification of AM esters. Imaging was carried out on an upright Nikon Eclipse FN-S2N upright fluorescence microscope using 10×/40× objectives with a filter to excite Fluo-4, a dye at 488 nm wavelength (peak excitation=494 nm and peak emission=516 nm) using a Lambda DG-4 illuminator (Sutter Instrument Co., Novato, Calif., USA). Images were captured using a Quantem 512SC camera with a frame rate of 5-10 frames per second and Nikon-NIS Elements, advanced research, imaging software. […] ROIs were selected free hand and encompassed the cell body to be analyzed. The ROIs were tracked and the average pixel intensity was measured in that region for the duration of the recording. […] Intracellular calcium concentration of S2 cells was monitored at room temperature. 20-30 S2 cells were calculated to determine the average overall fluorescence signal intracellular calcium concentration. […]

GPCR22 [5] = molecular target: T3, GPCR22 (Rattus norvegicus, UniProt D4A3U0); experiment: Erk 1/2 and Akt phosphorylation by guanosine in cultured rat astrocytes treated with siRNA for GPCR22 (Western Blot); type: cell-based; parameters: endogenous in cells; host or cells: cultured rat (brain) astrocytes
Method: (§2) Transient transfection of siRNAs for the rGPCR22 gene on rat cultured astrocytes and cell extracts were assayed for gene silencing 24 h after transfection was carried out. siRNA duplex specific for the rGPCR22 receptor were designed and chemically synthesized (www.Dharma.com), as well as their non specific control (NSC). Transfection of siRNAs for targeting endogenous genes was carried out using Oligofectamine (Invitrogen, Life Technologies) according to the manufacturer's instruction. Briefly, astrocytes at 60-70% confluence were cultured for 1 day in culture medium without antibiotics. 10 ml siRNA (20 mM) (Dharmacon research, Inc.) were diluted in 175 ml optimem for 5 min at room temperature. In the meantime, 3 ml oligofectamine was mixed in 15 ml optimem for 5 min. RNA interference was performed by mixing diluted oligofectamine and siRNA for 30 min at room temperature and was then added to the cells. The same scheme was performed on other samples using a siRNA-scrambled (NSP=non specific control). Cells were incubated at 37° C. for 24 hours. Twenty-four hours after transfection, the cells were lysed and assayed for gene silencing. The effect of GPCR22 silencing on MAPK and AKT phosphorylation, and cAMP assay was analysed.

GPCR22 [6] = molecular target: T3, GPCR22; experiment: Guanosine binding in rat astrocytes after inhibition of GPCR22 by siRNA; parameters: endogenous in cells; host or cells: cultured rat (brain) astrocytes; settings: astrocytes with GPCR22 inhibited by siRNA; data not shown
Method: as §2, with “analysed. […]” for “analysed.”

GPCR22 [7] = molecular target: T3, GPCR22; experiment: [3H]-guanosine binding to GPCR22 protein extracted from transfected S2 cells, competition with cold guanosine; parameters: expressed in transfected cells; host or cells: Drosophila Schneider 2 (S2) cells, pMT-V5-HisA vector, CuSO4 induction; settings: 10 nM [3H]-guanosine, 25° C., 75 min, FIG. 14
Method: The ability of GPCR22 receptor to bind to guanosine was assessed by performing competitive binding studies in the presence of cold guanosine. GPCR22 protein extracted from transfected […] cells were used in performing receptor-binding studies. The binding of [^3H]-guanosine (“hot” guanosine) to GPCR22 receptor was performed in triplicate in a final volume of 125 μl assay buffer (pH 7.4, 50 mM Tris-HCl, 1 mM EDTA, 5 mM MgCl2, 0.1 mM DTT, 0.1 mM PMSF, 100 mg/ml bacitracin and 5 mg/ml soybean trypsin inhibitor) containing 10 nM [^3H]-guanosine and the following concentrations of unlabeled guanosine (“cold” guanosine) (0.01 μM, 0.1 μM, 1.0 μM, 10 μM, 100 μM and 1 mM) and 50 ug of protein. The incubation of the GPCR22 receptor protein with ligands was carried out at 25° C. for 75 min. At the end of the incubation period, the unbound ligands were separated by vacuum filtration through Whatman GF/B filters. The bound ligand-protein was further washed 3 times with 5 ml of Tris-EDTA buffer, pH 7.4 (50 mM Tris-HCl, 1 mM EDTA). The radioactive filters were placed in plastic counting vials containing 4 ml of scintillation fluid, equilibrated overnight in a dark environment and counted the next day in a Beckman LS5000 liquid scintillation counter Model 1780. Non-specific binding was also calculated by the addition of excess guanosine (10 mM). […]

GPCR22 [8] = molecular target: T3, GPCR22; experiment: Fluo-4 AM imaging of intracellular Ca2+ in GPCR22-transfected S2 cells; type: cell-based; parameters: expressed in transfected cells; host or cells: Drosophila Schneider 2 (S2) cells, pMT-V5-HisA vector, CuSO4 induction
Method: Fluo-4 AM calcium imaging was used to visualize intracellular calcium concentration in the GPRC22-transfected and non-transfected S2 cells. A 2.5 mM stock solution of Fluo-4 Am dye (molecular Probes, Burlington, ON) was prepared in DMSO and 20% Pluronic F-127 and used to within a week. The S2 cell preparations were incubated with a final concentration of 5 μM fluo-4AM and 0.02% Pluronic F-127 in 1 ml S2 culture medium for 20 min at room temperature, then washed to allow for full de-esterification of AM esters. Imaging was carried out on an upright Nikon Eclipse FN-S2N upright fluorescence microscope using 10×/40× objectives with a filter to excite Fluo-4, a dye at 488 nm wavelength (peak excitation=494 nm and peak emission=516 nm) using a Lambda DG-4 illuminator (Sutter Instrument Co., Novato, Calif., USA). Images were captured using a Quantem 512SC camera with a frame rate of 5-10 frames per second and Nikon-NIS Elements, advanced research, imaging software. Intracellular calcium concentration was created in the Nikon-NIS elements program using regions of interest (ROIs) per each experiment. ROIs were selected free hand and encompassed the cell body to be analyzed. The ROIs were tracked and the average pixel intensity was measured in that region for the duration of the recording. These measurements were then exported to Excel and Clampfit for further analysis of frequency and amplitude. Intracellular calcium concentration of S2 cells was monitored at room temperature. 20-30 S2 cells were calculated to determine the average overall fluorescence signal intracellular calcium concentration. The fluorescence intensity was presented as the ratio F1/F0 in which the raw fluorescence intensity signals of a region of interest (ROI) was compared to the first fluorescence signal in that ROI throughout the recording. The Wilcoxon matched pairs t-test was used on two samples with equal variances to determine statistically significant differences at P=0.05. In each set of experiments, the exposure protocols for control and test conditions were identical.

T3 sequence (D4A3U0 whole entry): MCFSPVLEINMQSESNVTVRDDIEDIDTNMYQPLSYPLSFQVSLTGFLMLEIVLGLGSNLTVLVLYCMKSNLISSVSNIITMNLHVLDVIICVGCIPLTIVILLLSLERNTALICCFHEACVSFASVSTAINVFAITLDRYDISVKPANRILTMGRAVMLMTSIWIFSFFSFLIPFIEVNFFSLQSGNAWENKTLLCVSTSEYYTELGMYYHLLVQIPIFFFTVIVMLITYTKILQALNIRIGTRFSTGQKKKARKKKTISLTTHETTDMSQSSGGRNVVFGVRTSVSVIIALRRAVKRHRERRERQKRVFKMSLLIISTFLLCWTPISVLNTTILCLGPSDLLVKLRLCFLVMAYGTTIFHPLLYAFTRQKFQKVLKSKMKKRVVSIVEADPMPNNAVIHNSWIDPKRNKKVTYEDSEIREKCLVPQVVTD
T1 sequence (Q99680 whole entry C425R): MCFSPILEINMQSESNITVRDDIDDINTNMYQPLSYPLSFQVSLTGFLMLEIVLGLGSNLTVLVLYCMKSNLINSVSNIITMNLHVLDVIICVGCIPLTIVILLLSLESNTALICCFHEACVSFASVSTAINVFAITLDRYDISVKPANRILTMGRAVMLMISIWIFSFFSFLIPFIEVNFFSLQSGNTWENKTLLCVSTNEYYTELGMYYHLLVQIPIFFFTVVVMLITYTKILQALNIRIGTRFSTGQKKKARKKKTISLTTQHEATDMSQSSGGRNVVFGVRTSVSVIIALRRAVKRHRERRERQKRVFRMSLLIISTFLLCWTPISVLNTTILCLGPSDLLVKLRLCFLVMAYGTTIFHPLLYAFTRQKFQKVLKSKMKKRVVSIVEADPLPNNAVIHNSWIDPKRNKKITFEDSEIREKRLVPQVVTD
T2 sequence (Q99680 whole entry C425R): as above

SMILES: Nc1nc2c(ncn2[C@@H]2O[C@H](CO)[C@@H](O)[C@H]2O)c(=O)[nH]1 [guanosine]
- phosphorylation of Erk 1/2 (GPCR22 [1]; FIG. 7c): resulted in phosphorylation of both Erk 1/2 and Akt
- phosphorylation of Akt (GPCR22 [1]; FIG. 7d): resulted in phosphorylation of both Erk 1/2 and Akt
- intracellular cAMP levels (GPCR22 (G1) receptor): increase intracellular cAMP levels
- protection from actinomycine-induced apoptotic cell death (Caspase-3) [2]: protected transfected S2 cells from apoptotic cell death
- protection from actinomycine-induced apoptotic cell death (Caspase-3) (non-transfected S2 cells [3]): had no effect
- intracellular Ca^2+ level (non-transfected S2 cells [4]): does not induce; also recorded: had no effect
- activation of intracellular signaling by guanosine (GPCR22 [5]; astrocytes with GPCR22 inhibited by siRNA, data not shown): abolish
- phosphorylation of Erk 1/2 (GPCR22 [5]; guanosine 300 μM, astrocytes treated with si-RNA for GPCR22, FIG. 7a): inhibited
- phosphorylation of Akt (GPCR22 [5]; guanosine 300 μM, astrocytes treated with si-RNA for GPCR22, FIG. 7b): inhibited
- guanosine binding (GPCR22 [6]): abolish
- Bmax (GPCR22 [7]): 1.05±0.12 pmol mg^−1 protein and 1.057 pmol mg^−1 protein
- Kd (GPCR22 [7]; single high affinity binding site): 171 ± 39.8 nM
- time of intracellular calcium increase after adding guanosine (GPCR22 [8]; GPCR22-transfected S2 cells): ≤ 2 min
- intracellular Ca^2+ level (GPCR22 [8]; GPCR22-transfected S2 cells, FIGS. 12b, 12c, 15): elevate intracellular Ca^2+ levels; also recorded: significantly increases intracellular calcium level
- guanosine dose giving peak intracellular calcium increase (GPCR22 [8]; GPCR22-transfected S2 cells, low dose 0.1 μM to 10 μM, FIG. 13g): 5 µM
- intracellular Ca^2+ (GPCR22 [8]; guanosine 25 μM, time point 1 min, FIG. 13e): significant increase
- intracellular Ca^2+ fluorescence (GPCR22 [8]; guanosine 100 μM, imaging at 0, 0.5, 1 and 2 min, FIGS. 13a-d): fast and transient fluorescence increase
- intracellular Ca^2+ response across high doses (GPCR22 [8]; high dose guanosine 25 μM-400 μM, time point 1 min, FIG. 13f): no significant difference

Reference: patent US10012641B2, “G-protein-coupled-receptor-22-transformed cell lines and methods of use thereof to identify binding compounds” (LIBRAMEN NATURALS INC., priority 2014, dated 2018)
